Reference: ChEMBL document CHEMBL4507297, “Data for DCP probe PF-04457845” (2021)

What was measured:
[1] = target: Serine/threonine-protein kinase PRP4 homolog (Homo sapiens) (UniProt Q13523); conditions: Compound concentration 1000.0 nM
[2] = target: Macrophage colony-stimulating factor 1 receptor (Homo sapiens) (UniProt P07333); conditions: Compound concentration 1000.0 nM
[3] = target: Phosphatidylinositol 4-phosphate 5-kinase type-1 alpha (Homo sapiens) (UniProt Q99755); conditions: Compound concentration 1000.0 nM
[4] = target: Myotonin-protein kinase (Homo sapiens) (UniProt Q09013); conditions: Compound concentration 1000.0 nM
[5] = target: cAMP-dependent protein kinase catalytic subunit PRKX (Homo sapiens) (UniProt P51817); conditions: Compound concentration 1000.0 nM
[6] = target: Cyclin-dependent kinase 2 (Homo sapiens) (UniProt P24941); conditions: Compound concentration 1000.0 nM
[7] = target: Leucine-rich repeat serine/threonine-protein kinase 2 (Homo sapiens) (UniProt Q5S007); conditions: Compound concentration 1000.0 nM
[8] = target: Tyrosine-protein kinase SYK (Homo sapiens) (UniProt P43405); conditions: Compound concentration 1000.0 nM
[9] = target: Phosphorylase b kinase gamma catalytic chain, skeletal muscle/heart isoform (Homo sapiens) (UniProt Q16816); conditions: Compound concentration 1000.0 nM
[10] = system: Epidermal growth factor receptor (Homo sapiens), P00533 [L861Q]; conditions: Compound concentration 1000.0 nM
[11] = target: Mitogen-activated protein kinase 4 (Homo sapiens) (UniProt P31152); conditions: Compound concentration 1000.0 nM
[12] = system: Tyrosine-protein kinase ABL1 (Homo sapiens), P00519 [H396P]; conditions: Compound concentration 1000.0 nM
[13] = target: Serine/threonine-protein kinase PLK1 (Homo sapiens) (UniProt P53350); conditions: Compound concentration 1000.0 nM
[14] = target: 5-hydroxytryptamine receptor 2A (Homo sapiens, UniProt P28223); conditions: Compound concentration 10.0 uM
[15] = target: Membrane-associated tyrosine- and threonine-specific cdc2-inhibitory kinase (Homo sapiens) (UniProt Q99640); conditions: Compound concentration 1000.0 nM
[16] = target: Dual specificity mitogen-activated protein kinase kinase 1 (Homo sapiens) (UniProt Q02750); conditions: Compound concentration 1000.0 nM
[17] = target: Activin receptor type-2B (Homo sapiens) (UniProt Q13705); conditions: Compound concentration 1000.0 nM
[18] = target: Vascular endothelial growth factor receptor 3 (Homo sapiens) (UniProt P35916); conditions: Compound concentration 1000.0 nM
[19] = target: Serine/threonine-protein kinase Nek5 (Homo sapiens) (UniProt Q6P3R8); conditions: Compound concentration 1000.0 nM
[20] = target: Serine/threonine-protein kinase Nek7 (Homo sapiens) (UniProt Q8TDX7); conditions: Compound concentration 1000.0 nM
[21] = target: Serine/threonine-protein kinase B-raf (Homo sapiens) (UniProt P15056); conditions: Compound concentration 1000.0 nM
[22] = target: MAP kinase-interacting serine/threonine-protein kinase 1 (Homo sapiens) (UniProt Q9BUB5); conditions: Compound concentration 1000.0 nM
[23] = system: Phosphatidylinositol 4,5-bisphosphate 3-kinase catalytic subunit alpha isoform (Homo sapiens), P42336 [C420R]; conditions: Compound concentration 1000.0 nM
[24] = target: Beta-1 adrenergic receptor (Homo sapiens) (UniProt P08588); conditions: Compound concentration 10.0 uM
[25] = target: Serine/threonine-protein kinase 25 (Homo sapiens) (UniProt O00506); conditions: Compound concentration 1000.0 nM
[26] = target: Vascular endothelial growth factor receptor 1 (Homo sapiens) (UniProt P17948); conditions: Compound concentration 1000.0 nM
[27] = target: Ephrin type-B receptor 6 (Homo sapiens) (UniProt O15197); conditions: Compound concentration 1000.0 nM
[28] = target: Serine/threonine-protein kinase WNK3 (Homo sapiens) (UniProt Q9BYP7); conditions: Compound concentration 1000.0 nM
[29] = target: Beta-2 adrenergic receptor (Homo sapiens) (UniProt P07550); conditions: Compound concentration 10.0 uM
[30] = target: Serine/threonine-protein kinase WNK1 (Homo sapiens) (UniProt Q9H4A3); conditions: Compound concentration 1000.0 nM
[31] = system: Receptor-type tyrosine-protein kinase FLT3 (Homo sapiens), P36888 [UNDEFINED MUTATION]; conditions: Compound concentration 1000.0 nM
[32] = target: Serine/threonine-protein kinase Sgk2 (Homo sapiens) (UniProt Q9HBY8); conditions: Compound concentration 1000.0 nM
[33] = system: Receptor-type tyrosine-protein kinase FLT3 (Homo sapiens), P36888 [R834Q]; conditions: Compound concentration 1000.0 nM
[34] = target: Phosphorylase b kinase regulatory subunit alpha, liver isoform (Homo sapiens) (UniProt P46019); conditions: Compound concentration 1000.0 nM
[35] = target: Serine/threonine-protein kinase tousled-like 1 (Homo sapiens) (UniProt Q9UKI8); conditions: Compound concentration 1000.0 nM
[36] = target: Glycogen synthase kinase-3 beta (Homo sapiens) (UniProt P49841); conditions: Compound concentration 1000.0 nM
[37] = target: Ribosomal protein S6 kinase alpha-4 (Homo sapiens) (UniProt O75676); conditions: Compound concentration 1000.0 nM
[38] = target: Mitogen-activated protein kinase kinase kinase 13 (Homo sapiens) (UniProt O43283); conditions: Compound concentration 1000.0 nM
[39] = target: Cytoplasmic tyrosine-protein kinase BMX (Homo sapiens) (UniProt P51813); conditions: Compound concentration 1000.0 nM
[40] = target: Tyrosine-protein kinase JAK1 (Homo sapiens) (UniProt P23458); conditions: Compound concentration 1000.0 nM
[41] = target: Myosin light chain kinase 2, skeletal/cardiac muscle (Homo sapiens) (UniProt Q9H1R3); conditions: Compound concentration 1000.0 nM

Chain of MAP kinase-interacting serine/threonine-protein kinase 1 (Homo sapiens) (Q9BUB5 whole entry, looked up, canonical isoform): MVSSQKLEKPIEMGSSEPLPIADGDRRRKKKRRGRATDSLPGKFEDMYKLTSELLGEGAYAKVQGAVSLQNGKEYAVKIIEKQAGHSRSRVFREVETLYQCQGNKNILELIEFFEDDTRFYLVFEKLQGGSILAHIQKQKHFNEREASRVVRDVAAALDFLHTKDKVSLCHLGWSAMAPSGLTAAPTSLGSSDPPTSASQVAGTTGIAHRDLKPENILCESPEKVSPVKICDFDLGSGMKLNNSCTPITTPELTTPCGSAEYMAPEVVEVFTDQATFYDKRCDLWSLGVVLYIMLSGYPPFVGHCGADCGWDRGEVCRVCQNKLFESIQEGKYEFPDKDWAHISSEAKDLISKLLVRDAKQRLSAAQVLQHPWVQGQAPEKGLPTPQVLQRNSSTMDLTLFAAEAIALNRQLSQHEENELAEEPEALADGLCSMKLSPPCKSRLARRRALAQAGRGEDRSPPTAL
Chain of Serine/threonine-protein kinase Nek7 (Homo sapiens) (Q8TDX7 whole entry, looked up): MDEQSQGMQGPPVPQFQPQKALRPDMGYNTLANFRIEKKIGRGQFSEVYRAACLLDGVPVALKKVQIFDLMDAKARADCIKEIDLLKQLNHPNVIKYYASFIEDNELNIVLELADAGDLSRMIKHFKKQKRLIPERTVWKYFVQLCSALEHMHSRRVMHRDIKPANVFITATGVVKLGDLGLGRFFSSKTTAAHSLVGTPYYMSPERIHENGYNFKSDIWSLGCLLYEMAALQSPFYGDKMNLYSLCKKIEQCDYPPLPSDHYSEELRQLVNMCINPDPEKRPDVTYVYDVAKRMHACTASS
Chain of Serine/threonine-protein kinase tousled-like 1 (Homo sapiens) (Q9UKI8 whole entry): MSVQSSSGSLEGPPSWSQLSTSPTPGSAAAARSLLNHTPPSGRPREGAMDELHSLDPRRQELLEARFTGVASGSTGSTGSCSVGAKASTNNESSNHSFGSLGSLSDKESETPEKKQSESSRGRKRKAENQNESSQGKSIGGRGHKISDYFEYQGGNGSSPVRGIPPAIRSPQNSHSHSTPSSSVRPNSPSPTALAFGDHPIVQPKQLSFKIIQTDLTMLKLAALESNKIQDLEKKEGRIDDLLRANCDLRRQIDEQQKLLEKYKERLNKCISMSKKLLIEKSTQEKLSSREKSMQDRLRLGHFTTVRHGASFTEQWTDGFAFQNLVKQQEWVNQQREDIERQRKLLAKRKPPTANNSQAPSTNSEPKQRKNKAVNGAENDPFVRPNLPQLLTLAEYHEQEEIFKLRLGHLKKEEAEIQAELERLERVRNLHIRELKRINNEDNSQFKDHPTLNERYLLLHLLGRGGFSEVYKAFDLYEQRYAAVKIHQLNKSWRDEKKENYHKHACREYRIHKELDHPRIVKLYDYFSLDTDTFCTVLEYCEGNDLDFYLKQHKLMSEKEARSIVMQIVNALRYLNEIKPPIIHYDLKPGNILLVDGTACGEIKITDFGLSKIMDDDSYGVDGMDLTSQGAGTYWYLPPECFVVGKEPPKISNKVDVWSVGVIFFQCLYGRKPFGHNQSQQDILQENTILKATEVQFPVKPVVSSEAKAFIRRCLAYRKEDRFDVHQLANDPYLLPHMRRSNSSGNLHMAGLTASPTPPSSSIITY
Chain of Phosphatidylinositol 4,5-bisphosphate 3-kinase catalytic subunit alpha isoform (Homo sapiens), P42336 [C420R] (P42336 whole entry C420R, canonical isoform): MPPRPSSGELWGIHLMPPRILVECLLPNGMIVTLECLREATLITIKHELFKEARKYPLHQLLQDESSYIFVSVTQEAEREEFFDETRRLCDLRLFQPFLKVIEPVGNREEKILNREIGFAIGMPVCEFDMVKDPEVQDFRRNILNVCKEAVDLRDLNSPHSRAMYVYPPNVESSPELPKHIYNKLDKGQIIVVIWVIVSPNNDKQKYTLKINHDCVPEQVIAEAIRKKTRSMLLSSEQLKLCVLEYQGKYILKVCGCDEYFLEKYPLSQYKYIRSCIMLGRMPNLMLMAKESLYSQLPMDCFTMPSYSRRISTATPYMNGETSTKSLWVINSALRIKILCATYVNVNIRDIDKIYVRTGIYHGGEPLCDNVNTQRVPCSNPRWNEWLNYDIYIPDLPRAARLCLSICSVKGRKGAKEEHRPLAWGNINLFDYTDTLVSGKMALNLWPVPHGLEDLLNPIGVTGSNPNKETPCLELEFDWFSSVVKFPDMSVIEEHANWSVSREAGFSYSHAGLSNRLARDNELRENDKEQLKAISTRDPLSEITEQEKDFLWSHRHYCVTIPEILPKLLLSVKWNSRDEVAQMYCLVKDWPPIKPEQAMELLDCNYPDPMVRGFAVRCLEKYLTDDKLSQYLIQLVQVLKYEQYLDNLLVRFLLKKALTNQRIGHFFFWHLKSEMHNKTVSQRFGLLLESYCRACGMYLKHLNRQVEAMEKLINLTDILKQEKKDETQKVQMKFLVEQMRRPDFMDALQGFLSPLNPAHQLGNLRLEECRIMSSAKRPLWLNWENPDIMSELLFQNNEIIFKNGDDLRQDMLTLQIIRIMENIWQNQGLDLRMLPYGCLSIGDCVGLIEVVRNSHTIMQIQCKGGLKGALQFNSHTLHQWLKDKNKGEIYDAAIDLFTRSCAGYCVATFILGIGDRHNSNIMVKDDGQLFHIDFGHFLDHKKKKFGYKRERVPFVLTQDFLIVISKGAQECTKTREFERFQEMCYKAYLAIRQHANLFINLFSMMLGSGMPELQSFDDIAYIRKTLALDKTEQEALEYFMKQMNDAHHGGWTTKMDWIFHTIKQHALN
Chain of Vascular endothelial growth factor receptor 1 (Homo sapiens) (P17948 whole entry): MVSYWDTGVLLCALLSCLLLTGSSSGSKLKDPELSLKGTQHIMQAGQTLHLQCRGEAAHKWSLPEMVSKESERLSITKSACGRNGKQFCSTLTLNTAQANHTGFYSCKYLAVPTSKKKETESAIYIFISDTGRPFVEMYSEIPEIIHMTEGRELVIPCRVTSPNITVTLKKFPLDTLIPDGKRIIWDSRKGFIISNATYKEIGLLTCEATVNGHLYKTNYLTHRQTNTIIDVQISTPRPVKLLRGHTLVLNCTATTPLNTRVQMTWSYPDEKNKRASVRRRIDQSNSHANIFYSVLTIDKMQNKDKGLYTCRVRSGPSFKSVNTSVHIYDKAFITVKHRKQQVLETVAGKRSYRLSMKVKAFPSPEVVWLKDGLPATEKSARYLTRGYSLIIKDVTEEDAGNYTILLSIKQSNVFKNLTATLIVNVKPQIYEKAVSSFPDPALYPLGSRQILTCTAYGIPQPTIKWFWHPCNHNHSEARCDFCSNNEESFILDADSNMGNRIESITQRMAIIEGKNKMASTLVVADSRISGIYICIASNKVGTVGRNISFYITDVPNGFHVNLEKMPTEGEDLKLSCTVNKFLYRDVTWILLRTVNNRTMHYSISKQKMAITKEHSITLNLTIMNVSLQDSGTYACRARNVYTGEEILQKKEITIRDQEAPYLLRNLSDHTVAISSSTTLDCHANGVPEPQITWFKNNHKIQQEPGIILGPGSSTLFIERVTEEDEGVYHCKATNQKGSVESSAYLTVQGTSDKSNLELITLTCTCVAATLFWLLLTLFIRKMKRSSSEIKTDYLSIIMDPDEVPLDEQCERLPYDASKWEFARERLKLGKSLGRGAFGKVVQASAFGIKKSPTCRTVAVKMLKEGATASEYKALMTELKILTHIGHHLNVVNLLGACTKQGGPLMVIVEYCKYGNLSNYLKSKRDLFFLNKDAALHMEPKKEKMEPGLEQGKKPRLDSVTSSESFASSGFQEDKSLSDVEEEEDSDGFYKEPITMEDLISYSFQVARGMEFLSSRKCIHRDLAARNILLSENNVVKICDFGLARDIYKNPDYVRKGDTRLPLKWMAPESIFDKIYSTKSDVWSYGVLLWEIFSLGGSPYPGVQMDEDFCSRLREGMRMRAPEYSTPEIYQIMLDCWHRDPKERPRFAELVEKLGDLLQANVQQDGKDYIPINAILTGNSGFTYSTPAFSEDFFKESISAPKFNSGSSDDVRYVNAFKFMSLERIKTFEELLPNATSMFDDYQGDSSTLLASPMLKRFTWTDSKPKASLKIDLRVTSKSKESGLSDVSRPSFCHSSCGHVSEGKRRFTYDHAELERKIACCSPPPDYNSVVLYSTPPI
Chain of Beta-2 adrenergic receptor (Homo sapiens) (P07550 whole entry, looked up): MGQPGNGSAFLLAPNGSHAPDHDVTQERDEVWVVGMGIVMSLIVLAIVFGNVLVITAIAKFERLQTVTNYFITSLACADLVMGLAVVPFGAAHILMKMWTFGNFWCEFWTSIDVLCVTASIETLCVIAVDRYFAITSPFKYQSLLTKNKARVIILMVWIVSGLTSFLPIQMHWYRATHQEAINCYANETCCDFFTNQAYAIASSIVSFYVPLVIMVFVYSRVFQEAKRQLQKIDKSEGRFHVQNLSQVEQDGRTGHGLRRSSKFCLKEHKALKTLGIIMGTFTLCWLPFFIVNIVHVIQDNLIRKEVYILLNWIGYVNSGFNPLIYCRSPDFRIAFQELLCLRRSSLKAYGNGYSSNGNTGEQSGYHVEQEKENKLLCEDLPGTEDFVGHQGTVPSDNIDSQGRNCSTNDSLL
Chain of Phosphatidylinositol 4-phosphate 5-kinase type-1 alpha (Homo sapiens) (Q99755 whole entry): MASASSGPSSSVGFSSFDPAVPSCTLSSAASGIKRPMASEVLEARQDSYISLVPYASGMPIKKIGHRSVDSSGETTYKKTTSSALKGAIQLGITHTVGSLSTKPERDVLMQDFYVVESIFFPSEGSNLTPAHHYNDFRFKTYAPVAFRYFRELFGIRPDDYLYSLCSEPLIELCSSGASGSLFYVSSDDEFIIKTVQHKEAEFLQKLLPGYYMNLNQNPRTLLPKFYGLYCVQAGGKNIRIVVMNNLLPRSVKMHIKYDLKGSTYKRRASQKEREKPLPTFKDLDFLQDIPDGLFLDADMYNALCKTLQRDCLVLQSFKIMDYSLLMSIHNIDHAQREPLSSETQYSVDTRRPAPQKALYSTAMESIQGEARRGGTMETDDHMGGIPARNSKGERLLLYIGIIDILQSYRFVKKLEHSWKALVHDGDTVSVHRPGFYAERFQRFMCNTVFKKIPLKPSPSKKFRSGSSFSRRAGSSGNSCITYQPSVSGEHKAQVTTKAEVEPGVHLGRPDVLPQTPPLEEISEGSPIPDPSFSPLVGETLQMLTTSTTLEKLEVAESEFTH

O=C(Nc1cccnn1)N1CCC(=Cc2cccc(Oc3ccc(C(F)(F)F)cn3)c2)CC1
inactive: residual activity [1] 100% | residual activity [2] 100% | residual activity [3] 100% | residual activity [4] 100% | residual activity [5] 87% | residual activity [6] 100% | residual activity [7] 99% | residual activity [8] 100% | residual activity [9] 100% | residual activity [10] 84% | residual activity [11] 95% | residual activity [12] 100% | residual activity [13] 100% | residual activity [15] 100% | residual activity [16] 100% | residual activity [17] 98% | residual activity [18] 80% | residual activity [19] 97% | residual activity [20] 100% | residual activity [21] 93% | residual activity [22] 100% | residual activity [23] 100% | inhibition [24] 16.5% | residual activity [25] 100% | residual activity [26] 100% | residual activity [27] 100% | residual activity [28] 100% | inhibition [29] 0.51% | residual activity [30] 100% | residual activity [31] 100% | residual activity [32] 100% | residual activity [33] 100% | residual activity [34] 88% | residual activity [35] 100% | residual activity [36] 100% | residual activity [37] 100% | residual activity [38] 100% | residual activity [39] 71% | residual activity [40] 97% | residual activity [41] 88%
active: inhibition [14] 82.9%

O=C(Nc1cccnn1)N1CC(C/C=C/c2cncc(Oc3ccc(C(F)(F)F)cn3)n2)C1
active: residual activity [38] 0%
inactive: residual activity [1] 100% | residual activity [2] 87% | residual activity [3] 100% | residual activity [4] 100% | residual activity [5] 92% | residual activity [6] 100% | residual activity [7] 90% | residual activity [8] 100% | residual activity [9] 100% | residual activity [10] 100% | residual activity [11] 100% | residual activity [12] 76% | residual activity [13] 87% | inhibition [14] -3.55% | residual activity [15] 100% | residual activity [16] 93% | residual activity [17] 98% | residual activity [18] 100% | residual activity [19] 100% | residual activity [20] 100% | residual activity [21] 100% | residual activity [22] 67% | residual activity [23] 66% | inhibition [24] 1.97% | residual activity [25] 91% | residual activity [26] 100% | residual activity [27] 87% | residual activity [28] 84% | inhibition [29] 16.8% | residual activity [30] 100% | residual activity [31] 76% | residual activity [32] 74% | residual activity [33] 66% | residual activity [34] 100% | residual activity [35] 98% | residual activity [36] 77% | residual activity [37] 92% | residual activity [39] 100% | residual activity [40] 100% | residual activity [41] 87%
